{
  "source": "patent US20070142412A1",
  "about": "“Crystalline form of 2-{4-['3-(4-chloro-2-fluorophenyl)-4-pyrimidin-4-yl-1h-pyrazol-5-yl]piperidin-1-yl}-2-oxoethanol” (priority 2003, published 2007)",
  "test": "Moisture sorption analysis (DVS) followed by PXRD",
  "format": "physicochemical",
  "conditions": "25° C.",
  "experimental": "The moisture sorption profile of the sample was determined using a Surface Measurement System (SMS) DVS-1 Automated Water Sorption Analyzer operating via SMS Software version 2.16. The change in mass of the sample versus relative humidity (RH) was monitored at 25° C. using a method from 30% to 0%, 0% to 90%, 90% to 0%, and 0% to 30% RH in 10% RH steps with dm/dt=3×10^−4. Maximum hold time per step was 4 hours. An approximately 15 mg sample was loaded onto the sample holder. The balance was calibrated with a 100 mg standard weight at 25° C. HPLC-grade water was used for the study. It is believed that about 0.5% water is believed to be surface bound moisture. To investigate the hydration state of the Form 1 hydrate, moisture sorption analysis was performed. At the conclusion of the study, the sample was removed from the moisture sorption balance and analyzed by PXRD. […] Constant mass was not obtained at 0% RH in the moisture sorption study; therefore, an additional moisture sorption study was conducted with increase maximum hold time per step to allow the sample to reach equilibrium over the low RH range. […] This theory is in no way to be construed as limiting.",
  "data": [
    {"smiles": "O=C(CO)N1CCC(c2[nH]nc(-c3ccc(Cl)cc3F)c2-c2ccncn2)CC1", "note": "[Form 1 hydrate, 2-{4-[3-(4-chloro-2-fluorophenyl)-4-pyrimidin-4-yl-1H-pyrazol-5-yl]piperidin-1-yl}-2-oxoethanol]", "values": [
      {"measurement": "Change in PXRD diffraction pattern after moisture sorption analysis", "setting": "cycled 30% to 0%, 0% to 90%, 90% to 0%, 0% to 30% RH in 10% RH steps", "value": "No change was observed"},
      {"measurement": "Water content indicated by moisture sorption data", "setting": "at least 0.5% thought to be surface bound moisture", "value": "approximately 5.5%"}
    ]}
  ]
}
